Values joined by “and” are separate entries in the source; they are usually repeats but may differ in a detail not shown here. Identical values can stand only once.
Key:
[1] = molecular target: T1, phosphorylated VEGF-R2Δ50 (Homo sapiens, UniProt P35968, DEL940-989/E990V); test: VEGF-R2 ELISA assay; format: biochemical; details: Table 2; * determined with ELISA assay; read-out: FLVK-P Ki
T1 construct: VEGF-R2Δ50 contains residues 806-939 and 990-1171; made in house; host or cells: baculovirus/insect cells
Method in brief: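 Pre-autophosphorylated human VEGF-R2Δ50 (residues 806-939/990-1171, E990V; baculovirus) at 0.8 nM was run with 2 μM biotin-gastrin(1-17), 20 μM ATP, 26 mM MgCl2, 2 mM MnCl2, pH 7.5 Hepes. Phosphopeptide was captured on streptavidin and detected by anti-pTyr-HRP/ABTS at 405 nm; Ki came from activity at varying compound concentrations.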

[2] = molecular target: T2, CDK4/Cyclin D3 complex (Homo sapiens, UniProt P11802); test: CDK4/Cyclin D assay; format: biochemical; details: Table 2
T2 construct: made in house; host or cells: insect cells co-infected with baculovirus vectors
Method in brief: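 Insect-cell-expressed CDK4/cyclin D3 (50 nM) phosphorylating His-tagged Rb fragment (residues 386-928) with 25 μM [^32P]ATP in HEPES pH 7.4, MgCl2, 2% DMSO; 20 min at 30 °C, EDTA stop. Filter-captured 32P by phosphorimager; apparent Ki from competitive or tight-binding inhibition fits.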

[3] = molecular target: T3, CHK1 (Homo sapiens, UniProt O14757); test: CHK1 high-throughput screening; format: biochemical; details: for % inhibition @ 20 μM: Table 4, repeated entries per example; for inhibition at 20 µM: read-out: % inhibition @ 20 μM, Table 4, repeated entries per example
T3 sequence (O14757 1-476): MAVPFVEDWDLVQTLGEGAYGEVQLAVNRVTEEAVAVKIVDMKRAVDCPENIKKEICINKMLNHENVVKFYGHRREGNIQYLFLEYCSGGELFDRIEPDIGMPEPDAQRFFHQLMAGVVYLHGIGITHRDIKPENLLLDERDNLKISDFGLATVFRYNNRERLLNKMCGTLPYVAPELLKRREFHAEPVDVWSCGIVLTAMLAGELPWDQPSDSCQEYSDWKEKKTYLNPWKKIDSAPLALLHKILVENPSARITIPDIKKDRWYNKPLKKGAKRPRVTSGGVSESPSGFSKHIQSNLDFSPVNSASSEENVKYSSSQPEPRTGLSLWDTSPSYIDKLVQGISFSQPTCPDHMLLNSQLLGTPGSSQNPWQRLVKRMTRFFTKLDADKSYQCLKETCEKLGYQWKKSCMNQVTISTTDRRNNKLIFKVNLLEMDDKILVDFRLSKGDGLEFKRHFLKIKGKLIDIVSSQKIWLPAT

[4] = molecular target: CDK2/Cyclin A complex (Homo sapiens, UniProt P24941); test: CDK2/Cyclin A assay; format: biochemical; details: Table 2
Method in brief: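 Radiometric assay: 150 nM CDK2/cyclin A (insect-cell CDK2, truncated cyclin A) phosphorylates His-tagged Rb fragment (residues 386-928) with 25 μM ATP plus [32P]ATP, pH 7.4 HEPES, 2% DMSO, 30 °C for 20 min. Filter-captured product counted by phosphorimager; apparent Ki from competitive or tight-binding inhibition fits.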

[5] = molecular target: T4, FGF-R1 (Homo sapiens, UniProt P11362, C488A/C584S/L457V); test: FGF-R spectrophotometric assay; format: biochemical; details: for inhibition at 1 µM: Table 3, % inh @ 1 uM, read-out: FGF-P Ki (nM) (% inh @ 1 uM)
T4 construct: starting from the endogenous methionine residue 456 to glutamate 766; made in house; host or cells: baculovirus vector expression system
Procedure: FGF-R1 Construct for Assay: The intracellular kinase domain of human FGF-R1 was expressed using the baculovirus vector expression system starting from the endogenous methionine residue 456 to glutamate 766, according to the residue numbering system of Mohammadi et al., Mol. Cell. Biol., 16, 977-989 (1996). In addition, the construct also has the following 3 amino acid substitutions: L457V, C488A, and C584S.
The spectrophotometric assay was carried out as described above for VEGF-R2, except for the following changes in concentration: FGF-R=50 nM, ATP=2 mM, and poly(E4Y1)=15 mM.

[6] = molecular target: T5, phosphorylated VEGF-R2Δ50 (FLVK-P) (Homo sapiens, UniProt P35968, DEL940-989/E990V); test: VEGF-R2 coupled spectrophotometric (FLVK-P) assay; format: biochemical
T5 construct: VEGF-R2Δ50 contains residues 806-939 and 990-1171; made in house; host or cells: baculovirus/insect cells
Method in brief: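 Baculovirus-expressed human VEGF-R2Δ50 (residues 806-939/990-1171, E990V) was autophosphorylated with 3 mM ATP, 40 mM MgCl2 for 2 h at 4° C. ADP formation was coupled via PK/LDH to NADH oxidation, read at 340 nm, with 5.1 mM poly(E4Y1), 1 mM ATP, 25 mM MgCl2, Hepes pH 7.5. Ki came from activity across compound concentrations.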

[7] = molecular target: T6, unphosphorylated VEGF-R2Δ50 (FLVK) (Homo sapiens, UniProt P35968, DEL940-989/E990V); test: VEGF-R2 coupled spectrophotometric assay, unphosphorylated enzyme (FLVK); format: biochemical; details: Table 3; some entries 'Slow binder'
T6 construct: VEGF-R2Δ50 contains residues 806-939 and 990-1171; made in house; host or cells: baculovirus/insect cells
Method in brief: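 Unphosphorylated VEGF-R2Δ50 (5 to 40 nM) with 20 mM poly(E4Y1), 3 mM ATP, 60 mM MgCl2, 2 mM MnCl2 in 200 mM Hepes pH 7.5. ADP production coupled via PK/LDH to NADH oxidation, read at 340 nm. Ki from activity at varying compound concentrations.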

[8] = molecular target: T7, LCK tyrosine kinase (Homo sapiens, UniProt P06239, C224D/P223M); test: LCK spectrophotometric assay; format: biochemical; details: Table 3, read-out: LCK (% inh @ 1 uM)
T7 construct: starting from amino acid residue 223 to the end of the protein at residue 509; made in house; host or cells: insect cells

[9] = tested on: human umbilical vein endothelial cells (HUVEC); test: HUVEC proliferation assay; format: cell-based; details: Homo sapiens, HUVEC, Table 3
Method in brief: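 Exponentially growing HUVEC were serum-starved 24 h (F12K + 1% FBS), pre-treated 1 h with compound (0.1% DMSO final), then stimulated with 6 ng/ml VEGF. Proliferation was read 72 h later by MTT reduction (A595). IC50 came from seven 0.5-log concentrations in triplicate; screens gave % inhibition relative to VEGF-only and starved wells.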

[10] = tested on: lung cancer cells (line MV522); test: Cancer cell proliferation (MV522) assay; format: cell-based; details: MV522, Table 3

T7 sequence (P06239 223-509 P223M/C224D): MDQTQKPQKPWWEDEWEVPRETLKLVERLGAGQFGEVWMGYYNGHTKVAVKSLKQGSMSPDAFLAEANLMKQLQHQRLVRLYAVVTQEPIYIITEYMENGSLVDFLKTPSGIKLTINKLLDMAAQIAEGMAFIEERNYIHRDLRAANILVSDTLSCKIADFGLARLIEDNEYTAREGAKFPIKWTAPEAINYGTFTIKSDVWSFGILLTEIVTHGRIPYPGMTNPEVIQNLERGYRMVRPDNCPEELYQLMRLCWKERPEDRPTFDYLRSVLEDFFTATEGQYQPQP
T4 sequence (P11362 456-766 L457V/C488A/C584S): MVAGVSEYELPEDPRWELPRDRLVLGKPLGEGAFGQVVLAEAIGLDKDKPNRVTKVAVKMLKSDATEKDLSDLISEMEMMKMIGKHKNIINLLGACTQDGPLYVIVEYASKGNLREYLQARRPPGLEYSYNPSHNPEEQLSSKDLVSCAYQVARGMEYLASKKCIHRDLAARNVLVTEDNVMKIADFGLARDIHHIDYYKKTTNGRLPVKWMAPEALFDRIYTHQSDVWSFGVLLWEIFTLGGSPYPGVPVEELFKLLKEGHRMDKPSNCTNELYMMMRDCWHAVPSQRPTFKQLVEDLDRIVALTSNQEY
T2 sequence (P11802 whole entry): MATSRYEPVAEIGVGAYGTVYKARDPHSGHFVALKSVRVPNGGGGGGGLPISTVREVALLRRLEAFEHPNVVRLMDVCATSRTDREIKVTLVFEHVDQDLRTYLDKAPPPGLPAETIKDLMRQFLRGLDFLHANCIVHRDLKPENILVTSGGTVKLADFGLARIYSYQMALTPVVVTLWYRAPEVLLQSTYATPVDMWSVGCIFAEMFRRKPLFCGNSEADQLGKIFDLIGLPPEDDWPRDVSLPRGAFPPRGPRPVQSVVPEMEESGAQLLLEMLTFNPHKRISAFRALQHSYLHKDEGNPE
T2 sequence (P30281 whole entry partner): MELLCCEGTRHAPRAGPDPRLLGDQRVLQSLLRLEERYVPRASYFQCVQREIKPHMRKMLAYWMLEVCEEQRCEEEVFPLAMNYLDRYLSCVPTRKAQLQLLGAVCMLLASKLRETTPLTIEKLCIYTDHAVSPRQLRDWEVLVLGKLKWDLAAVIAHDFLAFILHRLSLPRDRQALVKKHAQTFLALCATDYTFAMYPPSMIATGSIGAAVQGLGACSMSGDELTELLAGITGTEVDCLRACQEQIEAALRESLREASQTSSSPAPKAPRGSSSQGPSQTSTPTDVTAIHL
T6 sequence (P35968 with tags, fused parts or gaps DEL940-989/E990V limits assumed): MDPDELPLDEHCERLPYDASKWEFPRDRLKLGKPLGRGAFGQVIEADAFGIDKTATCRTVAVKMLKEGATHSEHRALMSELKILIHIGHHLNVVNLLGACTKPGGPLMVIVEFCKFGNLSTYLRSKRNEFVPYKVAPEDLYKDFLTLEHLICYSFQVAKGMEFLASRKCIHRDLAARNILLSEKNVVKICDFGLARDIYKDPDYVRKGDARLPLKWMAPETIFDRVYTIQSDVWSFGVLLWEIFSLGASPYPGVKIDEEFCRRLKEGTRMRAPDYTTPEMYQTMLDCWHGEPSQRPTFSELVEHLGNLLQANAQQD
T1 sequence (P35968 with tags, fused parts or gaps DEL940-989/E990V limits assumed): as above
T5 sequence (P35968 with tags, fused parts or gaps DEL940-989/E990V limits assumed): as above

SMILES	melting point	Ki [7] [µM]	inhibition at 1 µM [5] [%]	inhibition at 1 µM [8] [%]	IC50 [9] [µM]	also measured
Nc1nc(Nc2ccc(S(N)(=O)=O)cc2)sc1-c1nc(-c2ccccc2)cs1 [A(1), 4-(4′-Amino-4-phenyl-[2,5′]bithiazolyl-2′-ylamino)-benzenesulfonamide]	233 to 235 °C (dec.)					Ki [1]: 1.4 µM; Ki [2]: 4.6 µM; % inhibition @ 20 μM [3]: 49.8%; inhibition at 20 µM [3]: 36.6%
COc1ccc(-c2csc(-c3sc(Nc4ccc(S(N)(=O)=O)cc4)nc3N)n2)cc1 [A(2), 4-[4′-Amino-4-(4-methoxy-phenyl)-[2,5′]bithiazolyl-2′-ylamino]-benzenesulfonamide]	195 to 198 °C					Ki [1]: 2.9 µM; Ki [4]: 1.8 µM; Ki [2]: 7.3 µM; % inhibition @ 20 μM [3]: 2.6% and 7.6%
Cc1sc(-c2sc(Nc3ccc(S(N)(=O)=O)cc3)nc2N)nc1-c1ccc(F)cc1 [A(14), 4-[4′-Amino-4-(4-fluoro-phenyl)-5-methyl-[2,5′]bithiazolyl-2′-ylamino]-benzenesulfonamide]	145 to 148 °C (dec.)					Ki [1]: 1.9 µM; Ki [4]: 3.1 µM; Ki [2]: 7 µM
Nc1nc(Nc2ccc(S(N)(=O)=O)cc2)sc1-c1nc(-c2cccc(O)c2)cs1 [A(16), 4-[4′-Amino-4-(3-hydroxy-phenyl)-[2,5′]bithiazolyl-2′-ylamino]-benzenesulfonamide]	205 to 209 °C (dec.)					Ki [1]: 0.022 µM; Ki [4]: 0.22 µM; Ki [2]: 0.98 µM; inhibition at 20 µM [3]: 35.4%
COc1cc(O)cc(-c2csc(-c3sc(Nc4cc(OC)c(OC)c(OC)c4)nc3N)n2)c1 [A(19), 3-[4′-Amino-2′-(3,4,5-trimethoxy-phenylamino)-[2,5′]bithiazolyl-4-yl]-5-methoxyphenol]	208 to 210 °C					Ki ([5]; Table 2): 0.39 µM; Ki ([6]; Table 2, spectrophotometric assay): 0.004 µM; inhibition at 20 µM [3]: 78.5%
Nc1nc(Nc2ccc(S(N)(=O)=O)cc2)sc1-c1nc(-c2cc(-c3ccc(Cl)cc3Cl)co2)cs1 [A(28), 4-{4′-Amino-4-[4-(2,4-dichloro-phenyl)-furan-2-yl]-[2,5′]bithiazolyl-2′-ylamino}-benzenesulfonamide]	225 to 230 °C (dec.)					Ki [1]: 131 µM; Ki [4]: 13 µM; Ki [2]: 24 µM; % inhibition @ 20 μM [3]: 9.3% and 0.4%
CCn1nc(C)cc1C(=O)Nc1ccc(C)c(-c2noc(-c3sc(Nc4cccc(CN5CCCC5)c4)nc3N)n2)c1 [B(9)]		0.00036	78	91		
COc1cccc(C(=O)Nc2ccc(C)c(-c3noc(-c4sc(Nc5ccccc5)nc4N)n3)c2)c1 [B(35)]		0.00026	39	34		
COc1cccc(C(=O)Nc2ccc(C)c(-c3noc(-c4sc(Nc5ccc(N6CCOCC6)nc5)nc4N)n3)c2)c1 [B(36), 3-[3-[(3-methoxybenzoyl)amino]-6-methyl-phenyl]-5-[2-[3-amino-6-(4-morpholinyl)-pyridinyl]-4-amino-5-thiazolyl]-1,2,4-oxadiazole]		0.00056	23	72		
COc1cc(Nc2nc(N)c(-c3nc(-c4cccc(NC(=O)c5cnc6ccccc6c5)c4)cs3)s2)cc(OC)c1OC [D(60), Quinoline-3-carboxylic acid {3-[4′-amino-2′-(3,4,5-trimethoxy-phenylamino)-[2,5′]bithiazolyl-4-yl]-phenyl}-amide]		0.0014	10	11	> 0.1	
COc1cc(Nc2nc(N)c(-c3nc(-c4cccc(NC(=O)c5ncoc5-c5ccccc5)c4)cs3)s2)cc(OC)c1OC [D(61), 5-Phenyl-oxazole-4-carboxylic acid {3-[4′-amino-2′-(3,4,5-trimethoxy-phenylamino)-[2,5′]bithiazolyl-4-yl]-phenyl}-amide]			9	4	0.165	IC50 [10]: > 10 µM
CNC(=O)Nc1nc(N)c(-c2nc(-c3cccc(NC(=O)c4cccc(Cl)c4)c3)cs2)s1 [F(10), N-{3-[4′-Amino-2′-(3-methyl-ureido)-[2,5′]bithiazolyl-4-yl]-phenyl}-3-chloro-benzamide]		0.00014	47	42	0.0085	
Cc1cccc(C(=O)Nc2cccc(-c3noc(-c4sc(NC(=O)NC(C)C)nc4N)n3)c2)c1 [F(13), N-(3-{5-[4-Amino-2-(3-isopropyl-ureido)-thiazol-5-yl]-[1,2,4]oxadiazol-3-yl}-phenyl)-3-methyl-benzamide]		0.00025	25	29	0.016	
COc1cccc(C(=O)Nc2cc(-c3noc(-c4sc(NC(=O)NCCCN5CCCC5=O)nc4N)n3)c(F)cc2F)c1 [O(2)]		0.00033	28	7		
CNC(=O)Nc1nc(N)c(-c2nc(-c3cc(NC(=O)c4cccc(OC)c4)c(F)cc3F)no2)s1 [O(4), N-(5-{5-[4-Amino-2-(3-methyl-ureido)-thiazol-5-yl]-[1,2,4]oxadiazol-3-yl}-2,4-difluoro-phenyl)-3-methoxy-benzamide]		0.00019	9	3	0.00064	inhibition at 0.05 µM ([6]; Table 3, at 50 nM): 87%
COCC(C)NC(=O)Nc1nc(N)c(-c2nc(-c3cc(NC(=O)c4cccc(OC)c4)c(F)cc3F)cs2)s1 (stereo not shown) [O(14), N-(5-{4′-Amino-2′-[3-(2-methoxy-1-methyl-ethyl)-ureido]-[2,5′]bithiazolyl-4-yl}-2,4-difluoro-phenyl)-3-methoxy-benzamide]			10	0	0.016	
COc1cccc(C(=O)Nc2cc(-c3csc(-c4sc(NC(=O)NCCCN5CCCC5=O)nc4N)n3)c(F)cc2F)c1 [O(15), N-[5-(4′-Amino-2′-{3-[3-(2-oxo-pyrolidin-1-yl)-propyl]-ureido}-[2,5′]bithiazolyl-4-yl)-2,4-difluoro-phenyl]-3-methoxy-benzamide]		0.0005	28	2		

From patent US6620828B2, “Thiazole compounds and pharmaceutical compositions for inhibiting protein kinases and methods for their use” (Agouron Pharmaceuticals, Inc., priority 1999, dated 2003)
